Measurements from patent US20080171768A1, “Pharmaceutical Composition Containing An Anti Parasitic Agent And Active Ingredient Selected From Carveol, Thymol, Eugenol, Borneol, Carvacrol, Alpha-Ionone, Or Beta-Ionone” (ADVANCED SCIENTIFIC DEVELOPMENTS, priority 2005, published 2008).
Like-named read-outs stand apart in the source and are kept apart here.

Key:
[1] = tested on: Eimeria acervulina and Eimeria tenella; assay: Treatment of subclinical coccidiosis in broiler chickens (in vivo); design: species or system Eimeria acervulina and Eimeria tenella (in chickens); details: infected chickens, 5 days treatment in feed (salinomycin 40 mg/kg feed, carvacrol or thymol 75 mg/kg feed); for Weight gain (grams ± SD) Day 5: day 5, immediately after stopping treatment; for Weight gain (grams ± SD) Day 15: day 15, 10 days after stopping treatment
Protocol: These in vivo tests were designed to measure weight gain, consumption index, daily oocyst output and appearance of fecal matter in treated chickens.
The experiment was carried out on 200 chickens aged 22 days (average weight 620 g) afflicted with subclinical coccidiosis sampled from a group of 10,000 broiler chickens.
Subclinical coccidiosis was diagnosed on day 20. The mean oocyst output in the experimental animals was 50,000 oocysts/g (OPG).
The antiparasitic agent used is salinomycin, one of the most widely used antiparasitics for this type of infection. Two antiparasitic pharmaceutical compositions according to the invention were prepared by mixing salinomycin at different concentrations with carvacrol or thymol at a sub-inhibitory concentration of 75 mg/kg of feed.
Antiparasitic activity was also determined either with salinomycin alone, or with carvacrol alone or thymol alone. Antiparasitic activity was measured according to the conventional criteria for this type of infection: weight gain, consumption index, daily oocyst output and appearance of fecal matter. These criteria were measured on day 5 (immediately after stopping treatment) and on day 15 (10 days after stopping treatment).
The sample was subdivided into seven groups of […]:
Group 1: Uninfected, untreated animals (healthy controls). Mean weight on day 22: 750 g.
Group 2: Infected, untreated animals (affection controls).
Group 3: Infected animals treated with salinomycin at a dose of 40 mg/kg of feed. Group 4: Infected animals treated with carvacrol 75 mg/kg of feed.
Group 5: Infected animals treated with thymol 75 mg/kg of feed.
Group 6: Infected animals treated with salinomycin 40 mg/kg of feed potentiated by carvacrol 75 mg/kg of feed.
Group 7: Infected animals treated with salinomycin 40 mg/kg of feed potentiated by thymol 75 mg/kg of feed.
The antiparasitic agents used were mixed with this feed during the five days of treatment. The animals had free access to the feed throughout the experiment.

[2] = tested on: Plasmodium falciparum clones 3d7, HB3, Dd2 and 7G8; assay: In vitro IC50, growth of Plasmodium falciparum clones on human red blood cells (SybrGreen DNA fluorescence); type: cell-based
Protocol: The experiment was carried out with four clones (named 3d7, HB3, Dd2 and 7G8) of the malarial agent Plasmodium falciparum, a parasitic disease also known as malaria. These clones are laboratory reference models commonly used to screen drugs for antimalarial activity.
Plasmodium falciparum was grown on human red blood cells. The test was carried out in 96-well plates in which infected red blood cells (synchronized with sorbitol) were contacted with the different treatments for 72 hours at 37° C. in an incubator with controlled atmosphere (5% CO2, 1% O2, 94% N2). Growth of the pathogen was measured by quantifying fluorescent DNA in the presence of SybrGreen.
An antiparasitic pharmaceutical composition according to the invention was prepared by mixing artesunate at different concentrations with carvacrol or eugenol at sub-inhibitory concentrations of 0.05 mM and 0.2 mM, respectively. […] This pharmaceutical composition according to the invention was named artesunate P eugenol or artesunate P carvacrol, the letter P signifying potentiation by eugenol or carvacrol.
In each case, antiparasitic activity was determined either with artesunate alone, or with carvacrol alone, or with eugenol alone, or with the composition of the invention.
The IC50 was determined with Harald Noedl's HN NonLin V1.051 Beta software based on the fluorescence values.
The experiment was carried out with the same Plasmodium falciparum clones as in example 2 (3d7, HB3, Dd2 and 7G8), the first two clones (3d7 and HB3) being susceptible and the other two (Dd2 and 7G8) being resistant to chloroquine.
Chloroquine, one of the most widely used antiparasitic agents, is tested. […] This pharmaceutical composition was named chloroquine P eugenol, the letter P signifying potentiation by eugenol.
In each case, antiparasitic activity was determined either with chloroquine alone, or with eugenol alone, or with the composition of the invention.
The IC50 was determined as in example 2.
The experiment was carried out with the same Plasmodium falciparum clones as in examples 2 and 3 (3d7, HB3, Dd2 and 7G8), the first two clones (3d7 and HB3) being susceptible and the other two (Dd2 and 7G8) being resistant to […].
Mefloquine, one of the most widely used antiparasitic agents, is tested. […] This pharmaceutical composition according to the invention was named mefloquine P eugenol, the letter P signifying potentiation by eugenol.
In each case, antiparasitic activity was determined either with mefloquine alone, or with eugenol alone, or with the composition of the invention.
The IC50 was determined as in examples 2 and 3.

Plasmodium berghei ANKA = assay: Cerebral malaria model, CBA/J mice infected with Plasmodium berghei ANKA (in vivo)
Excerpt: Here, the intrinsic antimalarial activity of carvacrol as well as artesunate potentiated by carvacrol was studied in vivo in an animal model of cerebral malaria (neuromalaria). The reference model for this type of infection makes use of CBA/J mice infected with Plasmodium berghei ANKA, an agent that causes cerebral malaria.
The intraperitoneal route was used for infection and treatment of the mice.
In this model, the onset of the first clinical signs occurs by day 4 or 5 (D4 or D5) after infection. Animals presenting these signs die in the next two days (D6 and D7).
The test was carried out on five groups of 10 mice as follows:
Group 1: Uninfected, untreated controls
Group 2: Infected mice treated with carvacrol (60 mg/kg of weight) twice a day every 12 hours
Group 3: Infected mice treated with carvacrol (40 mg/kg of weight) twice a day every 12 hours
Group 4: Infected mice treated with artesunate (40 mg/kg of weight) once a day
Group 5: Infected mice treated with artesunate (40 mg/kg of weight) once a day and with carvacrol (40 mg/kg of weight) twice a day.
Treatment commenced five days after infection (D5) and continued for three days (D5, D6, D7).

[3] = artesunate 40 mg/kg once a day, intraperitoneal, D5-D7
[4] = carvacrol 40 mg/kg twice a day (80 mg/kg/24 h), intraperitoneal, D5-D7
[5] = carvacrol 60 mg/kg twice a day (120 mg/kg/24 h), intraperitoneal, D5-D7

With `CC[C@@H](C(=O)[C@@H](C)[C@@H](O)[C@H](C)[C@@H]1O[C@@H]([C@@H](CC)C(=O)O)CC[C@@H]1C)[C@H]1O[C@]2(C=C[C@@H](O)[C@]3(CC[C@@](C)([C@H]4CC[C@](O)(CC)[C@H](C)O4)O3)O2)[C@H](C)C[C@@H]1C` [Salinomycin, salinomycin, reference compound] the “Consumption index Day 5” value [1] was 2.2, the “Fecal appearance Day 5” value [1] was “Diarrheal” and the “Oocyst output (OPG ± SD) Day 5” value [1] was 110,000 ± 6700 OPG. The “Weight gain (grams ± SD) Day 5” value [1] was 182 ± 28 grams, the “Consumption index Day 15” value [1] was 2.9 and the “Fecal appearance Day 15” value [1] was “Diarrheal”. The “Oocyst output (OPG ± SD) Day 15” value [1] was 164,000 ± 7200 OPG and the “Weight gain (grams ± SD) Day 15” value [1] was 835 ± 44 grams.

For `Cc1ccc(C(C)C)c(O)c1` [Thymol, thymol], the “Consumption index Day 5” value [1] was 2.45, the “Fecal appearance Day 5” value [1] was “Diarrheal” and the “Oocyst output (OPG ± SD) Day 5” value [1] was 98,000 ± 4200 OPG. The “Weight gain (grams ± SD) Day 5” value [1] was 180 ± 52 grams, the “Consumption index Day 15” value [1] was 3.3 and the “Fecal appearance Day 15” value [1] was “Diarrheal”. The “Oocyst output (OPG ± SD) Day 15” value [1] was 136,000 ± 6500 OPG and the “Weight gain (grams ± SD) Day 15” value [1] was 840 ± 45 grams.

`C[C@H]1[C@H](OC(=O)CCC(=O)O)O[C@@H]2O[C@@]3(C)CC[C@H]4[C@H](C)CC[C@@H]1[C@@]24OO3` [artesunate] was tested, and the IC50 ([2]; Plasmodium falciparum, Erythrocyte, 72 h, read-out: IC50 artesunate alone, Clone 3d7) was 0.00214 µM, the IC50 ([2]; Plasmodium falciparum, Erythrocyte, 72 h, read-out: IC50 artesunate alone, Clone 7G8) was 0.001 µM and the IC50 ([2]; Plasmodium falciparum, Erythrocyte, 72 h, read-out: IC50 artesunate alone, Clone Dd2) was 0.00266 µM. The IC50 ([2]; Plasmodium falciparum, Erythrocyte, 72 h, read-out: IC50 artesunate alone, Clone HB3) was 0.00228 µM, the IC50 ([2]; read-out: IC50 artesunate alone, Clone 7G8, 72 hours) was 0.00125 µM and the “% mortality” value (Plasmodium berghei ANKA; [3]) was 100%. The “Survival time of animals that died” value (Plasmodium berghei ANKA; [3]) was 7 days and the “protection of treated animals (in words)” value (Plasmodium berghei ANKA; artesunate alone 40 mg/kg/24 h) was “does not provide any protection”.

In the case of `Cc1ccc(C(C)C)cc1O` [carvacrol], the IC50 ([2]; Plasmodium falciparum, Erythrocyte, 72 h, read-out: IC50 carvacrol alone, Clone 3d7) is reported as 330 µM, the IC50 ([2]; Plasmodium falciparum, Erythrocyte, 72 h, read-out: IC50 carvacrol alone, Clone 7G8) is reported as 110 µM and the IC50 ([2]; Plasmodium falciparum, Erythrocyte, 72 h, read-out: IC50 carvacrol alone, Clone Dd2) is reported as 160 µM. For the same molecule, the IC50 ([2]; Plasmodium falciparum, Erythrocyte, 72 h, read-out: IC50 carvacrol alone, Clone HB3) was 220 µM, the “protection of treated animals (in words)” value (Plasmodium berghei ANKA; carvacrol 40 mg/kg twice a day (80 mg/kg/24 h)) was “does not afford any protection” and the “% mortality” value (Plasmodium berghei ANKA; [4]) was 100%. The “Survival time of animals that died” value (Plasmodium berghei ANKA; [4]) was 7.5 days, the “% survivor at D12” value (Plasmodium berghei ANKA; [5]) was 80% and the “Survival time of animals that died” value (Plasmodium berghei ANKA; [5]) was 7.5 days. The “% mortality” value (Plasmodium berghei ANKA; carvacrol 60 mg/kg twice a day (120 mg/kg/24 h), intraperitoneal, D5-D7 after infection) was 20%, the “Consumption index Day 5” value [1] was 2.4 and the “Fecal appearance Day 5” value [1] was “Diarrheal”. The “Oocyst output (OPG ± SD) Day 5” value [1] was 105,000 ± 5900 OPG, the “Weight gain (grams ± SD) Day 5” value [1] was 176 ± 32 grams and the “Consumption index Day 15” value [1] was 3. For the same molecule, the “Fecal appearance Day 15” value [1] was “Diarrheal”, the “Oocyst output (OPG ± SD) Day 15” value [1] was 147,000 ± 4300 OPG and the “Weight gain (grams ± SD) Day 15” value [1] was 812 ± 51 grams.

`CCN(CC)CCCC(C)Nc1ccnc2cc(Cl)ccc12` (stereo not drawn) [chloroquine] showed an IC50 ([2]; Plasmodium falciparum, Erythrocyte, 72 h, read-out: IC50 chloroquine alone, Clone 3d7 (susceptible to chloroquine)) of 0.0223 µM, an IC50 ([2]; Plasmodium falciparum, Erythrocyte, 72 h, read-out: IC50 chloroquine alone, Clone 7G8 (resistant to chloroquine)) of 0.445 µM and an IC50 ([2]; Plasmodium falciparum, Erythrocyte, 72 h, read-out: IC50 chloroquine alone, Clone Dd2 (resistant to chloroquine)) of 0.494 µM. The IC50 ([2]; Plasmodium falciparum, Erythrocyte, 72 h, read-out: IC50 chloroquine alone, Clone HB3 (susceptible to chloroquine)) was 0.0371 µM.

`C=CCc1ccc(O)c(OC)c1` [eugenol] was tested, and the IC50 ([2]; Plasmodium falciparum, Erythrocyte, 72 h, read-out: IC50 eugenol alone, Clone 3d7) was 1250 µM, the IC50 ([2]; Plasmodium falciparum, Erythrocyte, 72 h, read-out: IC50 eugenol alone, Clone 7G8) was 400 µM and the IC50 ([2]; Plasmodium falciparum, Erythrocyte, 72 h, read-out: IC50 eugenol alone, Clone Dd2) was 660 µM. It also gave an IC50 ([2]; Plasmodium falciparum, Erythrocyte, 72 h, read-out: IC50 eugenol alone, Clone HB3) of 660 µM.

`OC(c1cc(C(F)(F)F)nc2c(C(F)(F)F)cccc12)C1CCCCN1` (stereo not drawn) [mefloquine] showed an IC50 ([2]; Plasmodium falciparum, Erythrocyte, 72 h, Clone 3d7 (susceptible to mefloquine), read-out: IC50 mefloquine alone) of 0.00883 µM, an IC50 ([2]; Plasmodium falciparum, Erythrocyte, 72 h, Clone 7G8 (resistant to mefloquine), read-out: IC50 mefloquine alone) of 0.0153 µM and an IC50 ([2]; Plasmodium falciparum, Erythrocyte, 72 h, Clone Dd2 (resistant to mefloquine), read-out: IC50 mefloquine alone) of 0.0338 µM. It also gave an IC50 ([2]; Plasmodium falciparum, Erythrocyte, 72 h, Clone HB3 (susceptible to mefloquine), read-out: IC50 mefloquine alone) of 0.00896 µM.
